molecular target: Proteasome chymotrypsin-like activity (S26 protein from RPMI8226 cells) (Homo sapiens, UniProt P28074); type: biochemical; details: S26 protein from RPMI8226 cell extract 2 ug/well, substrate 20 uM, 37° C., 90 minutes; read-out: Proteasome chymotrypsin-like activity inhibition IC50
Outline: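 S26 proteasome fraction from homogenized RPMI8226 myeloma cells in 20 mM Tris-HCl pH 8.0 (2 ug extract/well) incubated 90 min at 37 °C with compound serially diluted from 10 uM (0.5% DMSO).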

Chain of Proteasome chymotrypsin-like activity (S26 protein from RPMI8226 cells) (P28074 60-263 limits assumed): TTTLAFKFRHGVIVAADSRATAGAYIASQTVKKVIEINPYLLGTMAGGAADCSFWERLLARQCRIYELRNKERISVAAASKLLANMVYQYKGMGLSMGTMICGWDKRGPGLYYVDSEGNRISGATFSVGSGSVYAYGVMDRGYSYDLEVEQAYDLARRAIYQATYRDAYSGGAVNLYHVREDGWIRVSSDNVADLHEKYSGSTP

SMILES | IC50
CC(C)[C@H](NC(=O)C1(Cc2ccccc2)CC(CNC(=O)c2cc(Cl)ccc2Cl)=NO1)B(O)O (stereo partly drawn) [Example 315, ((1R)-1-(5-benzyl-3-((2,5-dichlorobenzamido)methyl)-4,5-dihydroisoxazol-5-carboxamido)-2-methylpropyl)boronic acid] | < 10 nM
CC(C)C[C@H](NC(=O)C1(C(C)c2ccccc2)CC(CNC(=O)c2nccc3ccccc23)=NO1)B(O)O (stereo partly drawn) [Example 136, ((1R)-1-(3-((isoquinolin-1-carboxamido)methyl)-5-(1-phenylethyl)-4,5-dihydroisoxazol-5-carboxamido)-3-methylbutyl)boronic acid] | < 10 nM
CC(C)C[C@H](NC(=O)[C@]1(Cc2ccccc2)CC(c2cccc(C(C)(C)C)c2)=NO1)B(O)O [Example 24, ((R)-1-((S)-5-benzyl-3-(3-(tert-butyl)phenyl)-4,5-dihydroisoxazol-5-carboxamido)-3-methylbutyl)boronic acid] | < 500 nM
CC(C)C[C@H](NC(=O)C1(Cc2ccccc2)CC(CNC(=O)c2cnc3ccccc3n2)=NO1)B(O)O (stereo partly drawn) [Example 122, ((1R)-1-(5-benzyl-3-((quinoxalin-2-carboxamido)methyl)-4,5-dihydroisoxazol-5-carboxamido)-3-methylbutyl)boronic acid] | < 10 nM
CC(C)C[C@H](NC(=O)C12CCCC1C(CNC(=O)c1cccn3ccnc13)=NO2)B(O)O (stereo partly drawn) [Example 199, ((1R)-1-(3-((imidazo[1,2-a]pyridin-8-carboxamido)methyl)-3a,5,6,6a-tetrahydro-4H-cyclopenta[d]isoxazol-6a-carboxamido)-3-methylbutyl)boronic acid] | < 1000 nM
Cc1nc(C(=O)NCC2=NOC(Cc3ccccc3)(C(=O)N[C@@H](CC(C)C)B(O)O)C2)co1 (stereo partly drawn) [Example 173, ((1R)-1-(5-benzyl-3-((2-methyloxazol-4-carboxamido)methyl)-4,5-dihydroisoxazol-5-carboxamido)-3-methylbutyl)boronic acid] | < 25 nM
CC(C)C[C@H](NC(=O)C1(Cc2ccccc2C(F)(F)F)CC(CNC(=O)c2nccc3ccccc23)=NO1)B(O)O (stereo partly drawn) [Example 167, ((1R)-1-(3-((isoquinolin-1-carboxamido)methyl)-5-(2-(trifluoromethyl)benzyl)-4,5-dihydroisoxazol-5-carboxamido)-3-methylbutyl)boronic acid] | < 10 nM
CC(C)C[C@H](NC(=O)C1(Cc2cccc(Cl)c2)CC(CNC(=O)c2ccnn2C(C)C)=NO1)B(O)O (stereo partly drawn) [Example 250, ((1R)-1-(5-(3-chlorobenzyl)-3-((1-isopropyl-1H-pyrazol-5-carboxamido)methyl)-4,5-dihydroisoxazol-5-carboxamido)-3-methylbutyl)boronic acid] | < 10 nM
Cc1cccc(CC2(C(=O)N[C@@H](CC(C)C)B(O)O)CC(CNC(=O)c3ccnn3C(C)C)=NO2)c1 (stereo partly drawn) [Example 242, ((1R)-1-(3-((1-isopropyl-1H-pyrazol-5-carboxamido)methyl)-5-(3-methylbenzyl)-4,5-dihydroisoxazol-5-carboxamido)-3-methylbutyl)boronic acid] | < 10 nM
CC(C)C[C@H](NC(=O)C1(Cc2ccccc2)CC(CNC(=O)c2cn(C)c3ccccc23)=NO1)B(O)O (stereo partly drawn) [Example 208, ((1R)-1-(5-benzyl-3-((1-methyl-1H-indol-3-carboxamido)methyl)-4,5-dihydroisoxazol-5-carboxamido)-3-methylbutyl)boronic acid] | < 10 nM
COc1ccc(COCC2=NOC(Cc3ccccc3)(C(=O)N[C@@H](Cc3ccccc3)B(O)O)C2)cc1 (stereo partly drawn) [Example 275, ((1R)-1-(5-benzyl-3-(((4-methoxybenzyl)oxy)methyl)-4,5-dihydroisoxazol-5-carboxamido)-2-phenylethyl)boronic acid] | < 50 nM
CC(C)[C@H](NC(=O)C1(Cc2ccccc2)CC(CNC(=O)c2nccc3ccccc23)=NO1)B(O)O (stereo partly drawn) [Example 290, ((1R)-1-(5-benzyl-3-((isoquinolin-1-carboxamido)methyl)-4,5-dihydroisoxazol-5-carboxamido)-2-methylpropyl)boronic acid] | < 10 nM
CC(C)C[C@H](NC(=O)C1ON=C(CNC(=O)c2nccc3ccccc23)C1C)B(O)O (stereo partly drawn) [Example 65, ((1R)-1-(3-((isoquinolin-1-carboxamido)methyl)-4-methyl-4,5-dihydroisoxazol-5-carboxamido)-3-methylbutyl)boronic acid] | < 250 nM
CC(C)C[C@H](NC(=O)C1CC(c2nccc3ccccc23)=NO1)B(O)O (stereo partly drawn) [Example 12, ((1R)-1-(3-(isoquinolin-1-yl)-4,5-dihydroisoxazol-5-carboxamido)-3-methylbutyl)boronic acid] | < 250 nM
CC(C)C[C@H](NC(=O)C1(COC2CCCCC2)CC(CNC(=O)c2nccc3ccccc23)=NO1)B(O)O (stereo partly drawn) [Example 214, ((1R)-1-(5-((cyclohexyloxy)methyl)-3-((isoquinolin-1-carboxamido)methyl)-4,5-dihydroisoxazol-5-carboxamido)-3-methylbutyl)boronic acid] | < 10 nM
Cc1cccc(C(=O)N[C@@H](CC(C)C)C2=NOC(Cc3ccccc3)(C(=O)N[C@@H](CC(C)C)B(O)O)C2)n1 (stereo partly drawn) [Example 194, ((1R)-1-(5-benzyl-3-((S)-3-methyl-1-(6-methylpicolinamido)butyl)-4,5-dihydroisoxazol-5-carboxamido)-3-methylbutyl)boronic acid] | < 250 nM
CC(C)C[C@H](NC(=O)C1CC(C2CC2)=NO1)B(O)O (stereo partly drawn) [Example 10, ((1R)-1-(3-cyclopropyl-4,5-dihydroisoxazol-5-carboxamido)-3-methylbutyl)boronic acid] | < 500 nM
CC(=O)Nc1cccc(C(=O)NCC2=NOC(Cc3ccccc3)(C(=O)N[C@@H](CC(C)C)B(O)O)C2)c1 (stereo partly drawn) [Example 320] | < 10 nM
O=C(NCC1=NOC(Cc2ccccc2)(C(=O)N[C@@H](Cc2ccccc2)B(O)O)C1)c1cc(Cl)ccc1Cl (stereo partly drawn) [Example 296, ((1R)-1-(5-benzyl-3-((2,5-dichlorobenzamido)methyl)-4,5-dihydroisoxazol-5-carboxamido)-2-phenylethyl)boronic acid] | < 10 nM
O=C(NCC1=NOC(Cc2ccccc2)(C(=O)N[C@@H](Cc2ccccc2)B(O)O)C1)c1cccc2ccccc12 (stereo partly drawn) [Example 299, ((1R)-1-(3-((1-naphthamido)methyl)-5-benzyl-4,5-dihydroisoxazol-5-carboxamido)-2-phenylethyl)boronic acid] | < 10 nM

Next, values leading:

IC50 | SMILES
< 10 nM | CC(C)C[C@H](NC(=O)C1(Cc2ccccc2)CC(CNC(=O)c2ccccc2-c2ccccc2)=NO1)B(O)O (stereo partly drawn) [Example 97, ((1R)-1-(3-([1,1′-biphenyl]-2-carboxamidomethyl)-5-benzyl-4,5-dihydroisoxazol-5-carboxamido)-3-methylbutyl)boronic acid]
< 100 nM | CC(C)C[C@H](NC(=O)C1CC(c2cccc3ccccc23)=NO1)B(O)O (stereo partly drawn) [Example 19, ((1R)-3-methyl-1-(3-(naphthalen-1-yl)-4,5-dihydroisoxazol-5-carboxamido)butyl)boronic acid]
< 250 nM | CC(C)C[C@H](NC(=O)C1CC(c2cccc(-c3ccccc3)c2)=NO1)B(O)O (stereo partly drawn) [Example 20, ((1R)-1-(3-([1,1′-biphenyl]-3-yl)-4,5-dihydroisoxazol-5-carboxamido)-3-methylbutyl)boronic acid]
< 10 nM | COc1cccc(C(=O)NCC2=NOC(Cc3ccccc3)(C(=O)N[C@@H](CC(C)C)B(O)O)C2)n1 (stereo partly drawn) [Example 322]
< 25 nM | CC(C)C[C@H](NC(=O)C1(Cc2ccccc2)CC(CNC(=O)c2ccnn2C)=NO1)B(O)O (stereo partly drawn) [Example 176, ((1R)-1-(5-benzyl-3-((1-methyl-1H-pyrazol-5-carboxamido)methyl)-4,5-dihydroisoxazol-5-carboxamido)-3-methylbutyl)boronic acid]
< 10 nM | Cc1cccc(CC2(C(=O)N[C@@H](CC(C)C)B(O)O)CC(CNC(=O)c3cc(C)nn3C(C)C)=NO2)c1 (stereo partly drawn) [Example 234, ((1R)-1-(3-((1-isopropyl-3-methyl-1H-pyrazol-5-carboxamido)methyl)-5-(3-methylbenzyl)-4,5-dihydroisoxazol-5-carboxamido)-3-methylbutyl)boronic acid]
< 10 nM | N#Cc1cccc(C(=O)NCC2=NOC(Cc3ccccc3)(C(=O)N[C@@H](Cc3ccccc3)B(O)O)C2)c1 (stereo partly drawn) [Example 317, ((1R)-1-(5-benzyl-3-((3-cyanobenzamido)methyl)-4,5-dihydroisoxazol-5-carboxamido)-2-phenylethyl)boronic acid]
< 500 nM | CC(C)C[C@H](NC(=O)C1CC(C2CCCCC2)=NO1)B(O)O (stereo partly drawn) [Example 9, ((1R)-1-(3-cyclohexyl-4,5-dihydroisoxazol-5-carboxamido)-3-methylbutyl)boronic acid]
< 10 nM | CC(C)C[C@H](NC(=O)C1(Cc2ccccc2)CC(COCc2cccc(-c3ccccc3)c2)=NO1)B(O)O (stereo partly drawn) [Example 54, ((1R)-1-(3-(([1,1′-biphenyl]-3-ylmethoxy)methyl)-5-benzyl-4,5-dihydroisoxazol-5-carboxamido)-3-methylbutyl)boronic acid]
< 10 nM | Cc1cccc(COCC2=NOC(Cc3ccccc3)(C(=O)N[C@@H](Cc3ccccc3)B(O)O)C2)c1 (stereo partly drawn) [Example 271, ((1R)-1-(5-benzyl-3-(((3-methylbenzyl)oxy)methyl)-4,5-dihydroisoxazol-5-carboxamido)-2-phenylethyl)boronic acid]
< 10 nM | CC(C)C[C@H](NC(=O)C1(Cc2ccccc2)CC(CNC(=O)c2ccccc2Cl)=NO1)B(O)O (stereo partly drawn) [Example 286]
< 10 nM | CC(C)C[C@H](NC(=O)C1(Cc2ccccc2)CC(CNC(=O)c2cccc(N(C)C)c2)=NO1)B(O)O (stereo partly drawn) [Example 321]
< 10 nM | Cc1cccc(CC2(C(=O)N[C@@H](CC(C)C)B(O)O)CC(CNC(=O)c3cc(C(C)(C)C)nn3C(C)C)=NO2)c1 (stereo partly drawn) [Example 237, ((1R)-1-(3-((3-(tert-butyl)-1-isopropyl-1H-pyrazol-5-carboxamido)methyl)-5-(3-methylbenzyl)-4,5-dihydroisoxazol-5-carboxamido)-3-methylbutyl)boronic acid]
